According to ChEMBL document CHEMBL1201862, “PubChem BioAssay data set” (2004):
Several values for one entry are separate records, joined by “and”; a condition that tells them apart may be missing. Identical values can stand only once.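 Where inhibition never reached the appropriate level, the endpoint shown equals the highest concentration tested. Otherwise, values were interpolated linearly from a five-concentration, 48-hour dose response in 96-well plates. At the GI50, growth is halved.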 Activity calls are given as the source filed them. No stated cut-off is given here; in the data, active = GI50 up to about 1.1 µM and inactive = higher.

What was measured:
Test in all cases: NCI tumour cell line growth inhibition, 48 h
[1] = system: A549
[2] = system: ACHN
[3] = system: BT-549
[4] = system: HCT-116
[5] = system: LOX IMVI
[6] = system: Malme-3M
[7] = system: NCI/ADR-RES
[8] = system: OVCAR-5
[9] = system: OVCAR-8
[10] = system: RPMI-8226
[11] = system: SF-295
[12] = system: SNB-19
[13] = system: SR
[14] = system: SW-620
[15] = system: U-251
[16] = system: UACC-62
[17] = system: UO-31
[18] = system: MCF7
[19] = system: SNB-75

SMILES	GI50 [1]	GI50 [2]	GI50 [3]	GI50 [4]	GI50 [5]	GI50 [6]	GI50 [7]	GI50 [8]	GI50 [9]	GI50 [10]	GI50 [11]	GI50 [12]	GI50 [13]	GI50 [14]	GI50 [15]	GI50 [16]	GI50 [17]	GI50 [18]	GI50 [19]
O=c1[nH]c2nc(S)nc(S)c2[nH]1	> 100 µM (inactive)	> 100 µM (inactive)	> 100 µM (inactive)	> 100 µM (inactive)	> 100 µM (inactive)	> 100 µM (inactive)	> 100 µM (inactive)	> 100 µM (inactive)	> 100 µM (inactive)	> 100 µM (inactive)	> 100 µM (inactive)	> 100 µM (inactive)	> 100 µM (inactive)	> 100 µM (inactive)	> 100 µM (inactive)	> 100 µM (inactive)	> 100 µM (inactive)		
Cc1cn2c(/C=N/NC(=N)N)c(-c3ccc(Cl)c([N+](=O)[O-])c3)nc2s1	1.61 µM (inactive)	1.76 µM (inactive)		0.207 µM (active)	0.409 µM (active)	1.83 µM (inactive)	> 28.5 µM (inactive)	1.17 µM (inactive)	0.416 µM (active)	0.904 µM (active)	1.3 µM (inactive)			0.244 µM (active)	0.268 µM (active)	1.78 µM (inactive)	1.88 µM (inactive)	0.895 µM (active)	1.27 µM (inactive)
Oc1ccccc1/C=N/N1C(=S)N(C23CC4CC(CC(C4)C2)C3)C(=N\c2ccccc2)/C1=N/c1ccccc1	> 100 µM (inactive)	50 µM (inactive)	38.9 µM (inactive)	14.1 µM (inactive)		> 100 µM (inactive)	> 100 µM (inactive)	> 100 µM (inactive)	> 100 µM (inactive)	6.15 µM (inactive)	> 100 µM (inactive)	77.4 µM (inactive)	43.3 µM (inactive)	> 100 µM (inactive)	76.6 µM (inactive)	> 100 µM (inactive)	> 100 µM (inactive)		
CCOC(=O)c1sc2c(c1OC(=O)c1ccc(OC)cc1)c(=O)n(-c1ccccc1)c(=S)n2-c1ccccc1	> 100 µM (inactive)	> 100 µM (inactive)		20.7 µM (inactive)	> 100 µM (inactive)	61.7 µM (inactive)	21.8 µM (inactive)	> 100 µM (inactive)	> 100 µM (inactive)	> 100 µM (inactive)	> 100 µM (inactive)	> 100 µM (inactive)	36.5 µM (inactive)	> 100 µM (inactive)	> 100 µM (inactive)	> 100 µM (inactive)		> 100 µM (inactive)	> 100 µM (inactive)
CC1(c2ccc(Cl)cc2)c2ccccc2C(=O)N1CCCN1C(=O)c2ccccc2C1=O (stereo not given)	24.7 µM (inactive)	29.6 µM (inactive)	> 100 µM (inactive)	13.6 µM (inactive)	19.6 µM (inactive)		19.9 µM (inactive)		26.7 µM (inactive)	33.3 µM (inactive)	24.2 µM (inactive)	18.3 µM (inactive)	34.6 µM (inactive)	56.8 µM (inactive)	52.8 µM (inactive)	30.1 µM (inactive)	39.9 µM (inactive)		58.9 µM (inactive)
CCOC(=O)C(=[N+]=[N-])C(=O)C[N+]12CCN(CC1)CC2	> 100 µM (inactive)	> 100 µM (inactive)	> 100 µM (inactive)	> 100 µM (inactive)	> 100 µM (inactive)	> 100 µM (inactive)	> 100 µM (inactive)	> 100 µM (inactive)	> 100 µM (inactive)	> 100 µM (inactive)	> 100 µM (inactive)	> 100 µM (inactive)	> 100 µM (inactive)	> 100 µM (inactive)	> 100 µM (inactive)	> 100 µM (inactive)	> 100 µM (inactive)		> 100 µM (inactive)
S=C1/C(=N/c2ccccc2)N(C2CCCCC2)/C(=N\C2CCCCC2)N1c1ccccc1	60 µM (inactive)	> 100 µM (inactive)		68.9 µM (inactive)	> 100 µM (inactive)	> 100 µM (inactive)	> 100 µM (inactive)	> 100 µM (inactive)	> 100 µM (inactive)	> 100 µM (inactive)	36 µM (inactive)	47.2 µM (inactive)	> 100 µM (inactive)	> 100 µM (inactive)	32.2 µM (inactive)	76.2 µM (inactive)	> 100 µM (inactive)		> 100 µM (inactive)
NC(=O)Cn1c(=O)oc2cc(C(=O)CN3CCOCC3)ccc21				> 100 µM (inactive)	> 100 µM (inactive)	> 100 µM (inactive)	> 100 µM (inactive)	> 100 µM (inactive)	> 100 µM (inactive)	> 100 µM (inactive)	> 100 µM (inactive)	> 100 µM (inactive)	> 100 µM (inactive)	> 100 µM (inactive)	> 100 µM (inactive)			> 100 µM (inactive)	18.5 µM (inactive)
OC(C/C=N/N=C/CC(O)(C(F)(F)Cl)C(F)(F)Cl)(C(F)(F)Cl)C(F)(F)Cl	> 10 µM (inactive)	> 10 µM (inactive)		> 10 µM (inactive)	> 10 µM (inactive)	> 10 µM (inactive)	> 10 µM (inactive)		> 10 µM (inactive)	> 10 µM (inactive)	> 10 µM (inactive)	> 10 µM (inactive)	> 10 µM (inactive)	> 10 µM (inactive)	> 10 µM (inactive)	> 10 µM (inactive)	> 10 µM (inactive)	> 10 µM (inactive)	> 10 µM (inactive)
NNC(=S)NCCNC(=S)NN	> 100 µM (inactive)	> 100 µM (inactive)	> 100 µM (inactive)	> 100 µM (inactive)	> 100 µM (inactive)	> 100 µM (inactive)		> 100 µM (inactive)		> 100 µM (inactive)	> 100 µM (inactive)	> 100 µM (inactive)	> 100 µM (inactive)	> 100 µM (inactive)	> 100 µM (inactive)	> 100 µM (inactive)	> 100 µM (inactive)		> 100 µM (inactive)
CO[C@@H](c1ccccc1)[C@H](O)[C@](O)(c1ccccc1)P(=O)(OC)OC	> 100 µM (inactive)	> 100 µM (inactive)	47.6 µM (inactive)	> 100 µM (inactive)	> 100 µM (inactive)	> 100 µM (inactive)	> 100 µM (inactive)	> 100 µM (inactive)	> 100 µM (inactive)	> 100 µM (inactive)	> 100 µM (inactive)	> 100 µM (inactive)	> 100 µM (inactive)	> 100 µM (inactive)	> 100 µM (inactive)	> 100 µM (inactive)	> 100 µM (inactive)		> 100 µM (inactive)
CC(=O)OC1CC2C(=O)CC1(C)C2(C)C (stereo not given)	> 100 µM (inactive)	> 100 µM (inactive)		> 100 µM (inactive)	> 100 µM (inactive)	> 100 µM (inactive)	> 100 µM (inactive)	> 100 µM (inactive)	> 100 µM (inactive)	> 100 µM (inactive)	> 100 µM (inactive)	> 100 µM (inactive)	> 100 µM (inactive)	> 83.8 µM (inactive)	> 100 µM (inactive)	> 100 µM (inactive)	> 100 µM (inactive)	> 100 µM (inactive)	67.9 µM (inactive) and > 83.6 µM (inactive)
